In a melting point compilation (Tetko et al.; mined from patent text by program, amines drawn as free bases though some values may be those of a salt) one finds melting point data, which are given here for 35 compounds.

`CN(C)S(=O)(=O)c1ccc2c(c1)CNc1ccccc1O2`: the melting point (as a rule, the temperature, or range, at which the solid turns liquid) was in the range of 99 to 102 °C. Consider `N#Cc1cccc2c1CC(=O)c1cc(F)ccc1S2`, for which the melting point lay within 174 to 175 °C. The compound `Cn1c(-c2ccc(N3CCOCC3)cc2)cnc1[C@H](Cc1ccccn1)N(C=O)c1cc2cc(F)ccc2o1` had a melting point of 130 to 132 °C. The value for `CCOC(=O)Nc1cccc(C)c1C(=O)OCC` was 38.5 to 39.5 °C.

The compound `Cc1nc(N2CCC(Cc3ccc(OC(F)F)cc3)C2=O)sc1C(=O)NCc1ccccc1` (stereo not given) yielded a melting point of 132 to 133 °C.

The compound `Cc1ccc(-c2nc(CCCC#N)c(C(F)(F)F)o2)cc1` registered a melting point of 41 to 42.5 °C. The value for `CCCCCCCCCCCCOC(C)c1ccc(C(=O)O)cc1` (single isomer, unassigned; (+)) was 49.5 to 50 °C; that for `CC12CCC3C(CCC4CC(F)CCC43C)C1CCC2O` (stereo not given) was 150 to 151 °C.

In turn, `COC(=O)Nc1nc2ccc(SC[Si](C)(C)C)cc2[nH]1` showed a melting point of 189 to 191 °C. The value for `CCc1cccc(C)c1CNc1ccnc2c1nc(C)n2C` was 105 to 109 °C; that for `Cc1ccc(C)n1C1=CC2=C(CC1)CCc1[nH]c(=O)c(=O)n(O)c12` was above 250 °C. As for `NCC1CC(n2cc(-c3cccc(F)c3)c3c(N)ncnc32)C1` (stereo not given), the figure is 101 to 102 °C.

In turn, `Cc1cc(-c2cc(C(F)(F)F)n3ncc(C(=O)Nc4cccc(S(=O)(=O)N5CCN(C)CC5)c4)c3n2)ccc1Cl` displayed a melting point of 143 °C. The compound `c1ccc(Oc2ccc(C3(Cn4cncn4)OCCO3)cc2)cc1` displayed a melting point of 100 to 102 °C. The value for `CCNc1ncnc(NCC)c1[N+](=O)[O-]` was 80 to 81 °C; that for `CCCCCCOc1ccc(C(=O)c2cccc(C(=O)O)c2)c(C)c1` was 136 to 138 °C. As for `Clc1ccc(N2CCN(Cc3cn4cc(Cl)ccc4n3)CC2)cc1`, the figure is 145 to 146 °C; as for `O=C(CCn1ccnc1)c1c[nH]c2ccccc12`, 194 to 197 °C; as for `CN(CC(=O)C(Cc1c[nH]c2ccccc12)NC(=O)c1ccccc1)C(=O)N1CCCC1C(=O)O` (stereo not given), 102 to 128 °C. Compound `CC(Cc1ccc(Cl)c(Cl)c1)C(=O)Nc1cccc2ncccc12` (stereo not given) registered a melting point of 168 to 170 °C. Regarding `COC(=O)[C@@H](C)c1ccc2c(Br)c(OC)ccc2c1`, the melting point fell in the range of 94 to 95 °C. As for `CCOC(=O)/C=C(C)/C=C/C=C(\C)C1=Cc2cc(C(C)(C)C)ccc2OC1`, the figure is 129 °C; as for `COc1ccc(C(O)(CC#N)c2ccc(OC)cc2)cc1`, 102 °C.

In turn, `CSc1cncnc1-c1ssc(=S)c1C` registered a melting point of 89 to 90 °C. As to `COC(=O)CSCc1sccc1S(=O)(=O)N(C)c1cccc2cc(-c3nccs3)[nH]c12`, the melting point worked out at 126 °C. Consider `CCCCC(Cc1ccc(OCCNC(=O)c2ccc(-c3ccc(OC)cc3)cc2)cc1)C(=O)O` (stereo not given), for which the melting point lay in the range of 166 to 168 °C. In the case of `NC(N)=NC(=O)Cc1c(-c2ccccc2Cl)csc1-c1ccc(OCCc2cn[nH]c2)cc1`, the melting point was in the range of 71 to 72 °C. The value for `N#C/C=C/C1CN(C(c2ccccc2)c2ccccc2)C1` was 108 to 110 °C. As for `Nc1ccn2nc(-c3ccccc3)nc2c1`, the figure is 212 to 213 °C; as for `COC(=O)/C(=C/c1cccc([N+](=O)[O-])c1)CC(=O)O`, 160 to 161 °C.

In turn, `Cc1ccc2c(c1)C(=O)N(CC(=O)N1c3ccccc3N(Cc3ccccc3)C(=O)[C@H]3CCC[C@H]31)C2=O` (relative stereo) registered a melting point of 237 to 238 °C. As for `COC(=O)c1cccc2nc(OCC(F)(F)F)n(Cc3ccc(-c4ccccc4C#N)cc3)c12`, the figure is 143 to 145 °C; as for `CCOC(=O)CCCN(O)C(=O)NCCc1ccc(OC)c(OC)c1`, 75 to 76 °C; as for `COc1ccc(OC)c(C=C2CCn3c2nc2ccc(Cl)cc2c3=O)c1`, 220 to 222 °C. As for `Fc1ccc2c(CCN=c3sc4ccccc4s3)c[nH]c2c1`, the melting point was 193 °C.
